Measured values as given in patent US6008251A, “Retinoid-like compounds” (Bristol-Myers Squibb Company, priority 1998, dated 1999).

Key:
HL60 cells = assay: Differentiation and apoptosis of HL 60 cells (NBT staining); format: cell-based; details: for EC50 (culture day necessary to convert cells into a differentiated or apoptosed phenotype): 1 μM compound, culture up to 9 days, NBT staining
Protocol: HL 60 cells were evaluated for the effect of retinoic acid and the compound of Example 1 on both differentiation and apoptosis end points by the method described in Molecular and Cellular Biology, 15, 3540-3551 (1995). Cells were grown in culture for times up to 9 days in the presence of 1 μM all-trans retinoic acid (t-RA) or 1 μM compound of Example 1. At the end of each day of the culture period, cells were washed and stained with NBT (nitro blue tetrazolium) and counted.

[1] = test system: squamous-cell carcinoma of the head and neck; details: cited from earlier work

Compound	EC50 (culture day necessary to convert cells into a differentiated or apoptosed phenotype) (HL60 cells) [days]	activity in this assay compared with t-RA (in words) (HL60 cells; 1 μM, compared with 1 μM t-RA)	percentage of either differentiated or apoptosed HL60 cells (HL60 cells; 1 μM, day 1) [%]	percentage of either differentiated or apoptosed HL60 cells (HL60 cells; 1 μM, day 2) [%]	percentage of either differentiated or apoptosed HL60 cells (HL60 cells; 1 μM, day 3) [%]	percentage of either differentiated or apoptosed HL60 cells (HL60 cells; 1 μM, day 4) [%]	percentage of either differentiated or apoptosed HL60 cells (HL60 cells; 1 μM, day 5) [%]	percentage of either differentiated or apoptosed HL60 cells (HL60 cells; 1 μM, day 6) [%]	percentage of either differentiated or apoptosed HL60 cells (HL60 cells; 1 μM, day 7) [%]	percentage of either differentiated or apoptosed HL60 cells (HL60 cells; 1 μM, day 8) [%]	percentage of either differentiated or apoptosed HL60 cells (HL60 cells; 1 μM, day 9) [%]	prevention of second primary tumors (in words) [1]
CC1(C)C(=O)C(C)(C)c2cc(C(=O)Nc3ccc(C(=O)O)cc3)ccc21 [Example 1, 4(1',1',3',3'-Tetramethyl-2'-keto-indan-5'-carboxamido)benzoicacid]	4.0	comparable to t-RA	11	22	40	50	61	78	85	95	93	–
CC1=C(/C=C/C(C)=C/C=C/C(C)=C\C(=O)O)C(C)(C)CCC1 [Isotretinoin]	–	–	–	–	–	–	–	–	–	–	–	useful in prevention of second primary tumors
CC1=C(/C=C/C(C)=C/C=C/C(C)=C/C(=O)O)C(C)(C)CCC1 [all-trans retinoic acid]	3.2	–	21	23	48	80	95	96	97	98	97	–
